Laboratory results published in US5951473A, “Determination of intracellular sodium and potassium ions by NMR” (Board of Regents, The University of Texas System, priority 1997, dated 1999).
Entries after “also recorded” stand apart in the source; their conditions may differ.

How the values were obtained:
[1] = test system: rat muscle; details: cited from earlier work
[2] = ^23 Na NMR of blood and urine samples during shift reagent infusion; format: in vivo, rat (Sprague-Dawley); details: after DyTTHA^3- infusion
Source text: ^23 Na spectra obtained from the analysis of the blood and urine samples collected during infusion of either TmDOTP^5- or DyTTHA^3- were compared with the respective in vivo kidney spectrum. […] There was a signal from the urine sample at abut 35 ppm after infusion of DyTTHA^3- also, though there was no distinguishable signal in the corresponding in vivo spectrum (FIG. 3A and FIG. 3B).

[3] = test system: sodium in in vivo liver; assay: In vivo liver ^23 Na NMR with DyTTHA^3- (Blum et al., literature); details: dose of Blum et al. versus present methods
Protocol: This dose is about 4-6 times greater than a typical dose of MRI contrast agent (0.1-0.2 mmole kg^-1 ), such as GdDTPA^2-. The inventors are aware of only one other ^23 Na NMR study of in vivo liver using a SR. Blum, H., Osbakken, M. D. & Johnson, R. G. (1991) Magn. Reson. Med. 18, 348-357 infused 6 mmoles kg^-1 h^-1 of DyTTHA^3- for 60 to 90 minutes to discriminate between intra- and extracellular sodium. This SR dose is 8-12 times larger than the amount of TmDOTP^5- employed using the methods of the present invention. After DyTTHA^3- infusion, Blum, H., Osbakken, M. D. & Johnson, R. G. (1991) Magn. Reson. […] This is extremely important for valid measurement of tissues volumes, relaxation rates, and ^23 Na visibility during physiological interventions.

[4] = test system: sodium in in vivo liver; details: cited from earlier work
[5] = test system: intra- and extracellular sodium of rat liver; assay: In vivo ^23 Na NMR shift experiments in rat liver during shift reagent infusion; details: for ^23 Na shift and line broadening in words: DyTTHA^3- versus TmDOTP^5-; for dose required to induce a ^23 Na shift of 5 ppm: body weight; for peak width at half height, extracellular resonance / peak width at half height, intracellular resonance: resonances separated by 5 ppm
Protocol: (§1) Animal Preparation: Male Sprague-Dawley rats weighing 350-450 g were initially anesthetized by intramuscular injection of a 0.5 ml mixture of ketamine (13 mg/ml) and xylazine (87 mg/ml). Both jugular veins and a carotid artery were cannulated through a midline neck incision. One jugular vein was used to maintain the anesthesia (2 mg/ml ketamine, 0.25 mg/ml xylazine in 5% guaifenesin) at a rate of 2-3 ml/hour, and the other was used to infuse SR. The blood pressure and heart rate were continuously monitored from the carotid artery during the NMR experiments using a Gould transducer and Coulbourn polygraph. A tracheotomy was performed and the rat was connected to a respirator and maintained at a respiration rate of 90 breaths/minute and a tidal volume of 3 cc. The rats were also nephrectomized to eliminate clearance of the shift reagent, except in those animals where SR clearance was measured. Livers were exposed through a subcostal incision and a surface coil was positioned directly on the liver with the animal in a supine position. The animals were maintained at 37° C. using a water recirculating heating pad.
(§2) SR Infusion: Stock solutions of 80 mM TmDOTP^5- or 400 mM DyTTHA^3- were initially infused at a rate of 2 ml/hr for 6 minutes. […] After achieving a chemical shift difference of 5-7 ppm between the intra- and extracellular sodium resonances, the infusion rate was reduced to 2-3 ml/hr. No Ca^2+ was added during infusion of either SR.
(§3) NMR Data Collection: All in vivo NMR experiments were performed on a 4.7-T 40-cm GE CSI Omega spectrometer (GE NMR Instruments, Fremont, Calif.). Shimming was performed on the sodium signal. A sodium line width of 35-40 Hz was typical. Both ^23 Na and ^31 P spectra were collected in an interleaved fashion during TmDOTP^5- infusion. […] The coil performance was optimized such that there was less sensitivity loss at the ^31 P frequency as compared to at the ^23 Na frequency.
(§4) Switching of these parameters and the spectrometer frequency was executed by a script in an automated fashion. To take advantage of the short spin-lattice relaxation time of sodium, two ^23 Na acquisitions were collected between each ^31 P acquisition. Cyclops phase cycling was used for both the nuclei. […] The FIDs were Fourier transformed after base-line correction and a single exponential multiplication corresponding to 10 Hz line broadening for ^23 Na and a 20 Hz line broadening for ^31 P.

[6] = test system: kidney sodium; assay: In vivo ^23 Na NMR of kidney during shift reagent infusion; set-up: species or system rat (Sprague-Dawley)
Protocol: Male Sprage-Dawley rats were prepared for magnetic resonance exam and TmDOTP^5- was infused into animals as described in Example 2. TmDOTP^5- produced well resolved ^23 Na resonances in the kidney with a separation of 7-10 ppm between the extra- and intracellular Na^+ resonances after infusion of about 0.681 mmoles of the SR per Kilogram of Body Weight (KgBW). The inventors also observed a third ^23 Na resonance, broader than the extracellular resonance and shifted to about 35 ppm. This is the first time this resonance has been observed in any SR aided experiment in any organ. After about 10 minutes of TmDOTP^5- infusion (infusion dose 0.147 mmoles/KgBW), one broad shifted resonance became apparent at about 15 ppm. Continued infusion of the SR shifted this resonance further upfield. Simultaneously, another resonance became visible as a high frequency shoulder on the unshifted resonance after about 14 minutes of infusion (infusion dose 0.254 mmoles/KgBW). Finally, the three resonances became clearly resolved after about 17 minutes of infusion (infusion dose 0.334 mmoles/KgBW).
The single ^23 Na resonance broadened with infusion of this shift reagent and the intracellular Na^+ resonance became evident as a shoulder on the shifted extracellular Na^+ resonance only after 3-5 mmoles of DyTTHA^3- /KgBW had been infused.

[7] = test system: rat liver; details: in vivo, iv
Protocol: as §1
The washout rate of TmDOTP^5- was measured by monitoring the frequency of the shifted ^23 Na peak after stopping the infusion.

[8] = Bansal et al. 1992; cited from earlier work
[9] = live rats, Bansal et al. 1992; cited from earlier work
[10] = test system: renal phosphate metabolites; assay: In vivo ^31 P NMR of kidney and blood pressure during TmDOTP^5- infusion; set-up: species or system rat (Sprague-Dawley)
[11] = test system: in vivo exposed livers; details: rat
Protocol: Animal Preparation: Male Sprague-Dawley rats weighing 350-450 g were initially anesthetized by intramuscular injection of a 0.5 ml mixture of ketamine (13 mg/ml) and xylazine (87 mg/ml). Both jugular veins and a carotid artery were cannulated through a midline neck incision. One jugular vein was used to maintain the anesthesia (2 mg/ml ketamine, 0.25 mg/ml xylazine in 5% guaifenesin) at a rate of 2-3 ml/hour, and the other was used to infuse SR. The blood pressure and heart rate were continuously monitored from the carotid artery during the NMR experiments using a Gould transducer and Coulbourn polygraph. A tracheotomy was performed and the rat was connected to a respirator and maintained at a respiration rate of 90 breaths/minute and a tidal volume of 3 cc. The rats were also nephrectomized to eliminate clearance of the shift reagent, except in those animals where SR clearance was measured. […]
The resting transmembrane potential (-Em) was measured in in vivo exposed livers using a modified Ling-Gerard ultramicroelectrode Holliday, R. L., Illner, H. P. & Shires, G. T. (1981) J. Surg. […] Serum sodium, potassium, and hemoglobin concentrations as well as arterial pH, pCO2 and pO2 were monitored throughout the infusion protocol using a standard clinical blood gas analyzer.

[12] = Physiological measurements (heart rate, pressure, blood serum and gas values) in rats during TmDOTP^5- infusion; details: doses required for baseline resolution of ^23 Na resonances
Protocol: as §1, §2
(§5) Several key physiological measurements were obtained on a group of animals (n=7) during infusion of TmDOTP^5- using the same protocol as used during all subsequent NMR measurements. […] Excess Ca^2+ was not coadded with the SR in these experiments, unlike in isolated perfused heart experiments where excess Ca^2+ must be coadded with TmDOTP^5- to maintain an extracellular free [Ca^2+ ] of about 1 mM.
(§6) Serum sodium, potassium, and hemoglobin concentrations as well as arterial pH, pCO2 and pO2 were monitored throughout the infusion protocol using a standard clinical blood gas analyzer.

[13] = test system: rat liver Na^+ (i) and Na^+ (e)
Protocol: Rats with third degree burns covering 40% of the body surface were employed. Adult male Sprague-Dawley rats (300-500 g) were randomly divided into burn (n=7) and sham-burn (n=4) groups. […] Rats were deeply anesthetized with methoxyflurane, shaved, and secured in a template device. A full-thickness scald burn over 40% of the total body surface area was produced by immersing the exposed body surface into a 100° C. water bath for 12 s on the back and sides. The animals were quickly dried after each exposure to avoid additional injury. […] The sham-burn rats were anesthetized and handled in an identical manner except they were exposed to room temperature water. After recovery from inhalation anesthesia, the animals were placed in separate cages and given food and water ad libitum.
At 24-hr postburn, the animals were anesthetized by intramuscular injection of a 0.5 ml mixture of ketamine (87 mg/ml) and xylazine (13 mg/ml) and were placed on a warming blanket. The left femoral vein, left femoral artery, and left jugular vein were cannulated for supplemental anesthesia for arterial blood pressure measurement and for infusion of the shift reagent, respectively. Heparinized saline, 9 U/ml, was used in the arterial line. A midline laparotomy was performed to expose the liver, and the xiphoid process was removed. Each rat was then secured in a cradle in an upright position for the MRS experiments. A 2.2 cm diameter surface coil dual tuned to 47 MHz for ^23 Na and 72 MHz for ^31 P was positioned over the intersection of the three major lobes and the abdominal incision was sutured in separate layers around the insulated coil leads to prevent fluid and heat loss during NMR data collection.
Concurrent ^23 Na and ^31 P spectra were collected using a Nicolet NT 180 spectrometer with an Oxford 4.2 T vertical bore (130 mm) superconducting magnet. The field homogeneity was adjusted first with the ^1 H free induction decay (FID) from the liver and then with the ^23 Na FID for maximum field uniformity. A ^23 Na line width of 40-50 Hz was typical. ^23 Na spectra were generated from the summed FIDs of 100 excitation pulses (40 μs) at 105-ms intervals using 1,024 word data files and a sweep width of ±3000 Hz. The spectra were zero-filled to 4,096 points before Fourier transformation. The relative areas of the Na^+ (i) and Na^+ (e) resonances in the ^23 Na spectra and of the β-ATP and Pi resonances in the phosphorus spectra were determined with the GEMCAP curve analysis program supplied with the Nicolet software.
After initial baseline spectra were obtained, infusion of TmDOTP^5 was begun at 0.5 mmol kg^-1 h^-1, and the rate was increased slowly to 1.2 or 1.6 mmol kg^-1 h^- over a period of 12 min. […]

[14] = rat, in vivo
Protocol: Rats with third degree burns covering 40% of the body surface were employed. Adult male Sprague-Dawley rats (300-500 g) were randomly divided into burn (n=7) and sham-burn (n=4) groups. […] Rats were deeply anesthetized with methoxyflurane, shaved, and secured in a template device. A full-thickness scald burn over 40% of the total body surface area was produced by immersing the exposed body surface into a 100° C. water bath for 12 s on the back and sides. The animals were quickly dried after each exposure to avoid additional injury. No postburn analgesics were administered for this model, since the burn injury was a full-thickness burn that destroys all cutaneous nerve endings; as a result, the rats experienced no postburn pain as evidenced by their eating, drinking, moving freely around the cage, and responding to external stimulus. The sham-burn rats were anesthetized and handled in an identical manner except they were exposed to room temperature water. After recovery from inhalation anesthesia, the animals were placed in separate cages and given food and water ad libitum.
At 24-hr postburn, the animals were anesthetized by intramuscular injection of a 0.5 ml mixture of ketamine (87 mg/ml) and xylazine (13 mg/ml) and were placed on a warming blanket. The left femoral vein, left femoral artery, and left jugular vein were cannulated for supplemental anesthesia for arterial blood pressure measurement and for infusion of the shift reagent, respectively. Heparinized saline, 9 U/ml, was used in the arterial line. A midline laparotomy was performed to expose the liver, and the xiphoid process was removed. Each rat was then secured in a cradle in an upright position for the MRS experiments. A 2.2 cm diameter surface coil dual tuned to 47 MHz for ^23 Na and 72 MHz for ^31 P was positioned over the intersection of the three major lobes and the abdominal incision was sutured in separate layers around the insulated coil leads to prevent fluid and heat loss during NMR data collection. […]

[15] = test system: rat liver phosphate metabolites and intracellular pH; assay: In vivo ^31 P NMR (interleaved) of rat liver during shift reagent infusion
Protocol: as §1, §2, §3, §4

[16] = test system: rat brain; details: cited from earlier work
[17] = rat, in vivo; remark: listed apart in the source
Protocol: as §1, §2, §5, §6

O=C([O-])CN(CCN(CCN(CC(=O)[O-])CC(=O)[O-])CC(=O)[O-])CCN(CC(=O)[O-])CC(=O)[O-].[Dy+3] [DyTTHA^3-, dysprosium(III)triethylenetetraminehexaacetate]
washout t1/2 [1]: 44 min
shift of ^23 Na signal from urine sample [2]: ~35 ppm
dose ratio of DyTTHA^3- versus TmDOTP^5- [3]: 8-12 times
resolution of sodium resonances in words ([4]; 6 mmoles kg^-1 h^-1 for 60 to 90 minutes): very broad and were not resolved
extracellular Na^+ signal shift in words ([4]; Blum et al.): shifted downfield by about the same amount as in the present study
broadening factor of intracellular resonance line-width, DyTTHA^3- versus TmDOTP^5- ([5]; rat liver): ~3 factor
resolution of intra- and extracellular ^23 Na resonances in words ([5]; rat liver): very broad and not resolved; also recorded: did not improve the resolution of intra- and extracellular resonances
^23 Na shift and line broadening in words ([5]; rat liver): much lower ^23 Na shift per unit concentration and more severe line broadening
dose required to induce a ^23 Na shift of 5 ppm ([5]; rat liver): 3.74 mmol/kg
peak width at half height, extracellular resonance ([5]; rat liver): 300 Hz
peak width at half height, intracellular resonance ([5]; rat liver): 195 Hz
hemodynamic stability during infusion ([5]; versus TmDOTP^5-): hemodynamically more stable
dose at which intracellular Na^+ resonance became evident as a shoulder ([6]; kidney): 3-5 mmoles/KgBW
dose ratio versus TmDOTP^5- for comparable shift ([6]; kidney): 5-8 times
resolution of Na^+ resonances in kidney in words ([6]; kidney in vivo): did not produce resolved Na^+ resonances
third highly shifted Na^+ resonance in kidney in words ([6]; kidney in vivo): no indication of the existence of the third highly shifted Na^+ resonance

thulium(III) 1,4,7,10-tetraazacyclododecane-1,4,7,10-tetrakis (methylene phosphonate) [TmDOTP^5-]
washout t1/2 [7]: 9 min
crossing of the blood brain barrier [8]: does not cross the blood brain barrier
Ca^2+ release from body stores during infusion [9]: rapidly released from body stores
renal high energy phosphate levels ([10]; kidney): unaffected
^31 P resonance areas and chemical shifts, kidney ([10]; kidney during infusion): did not produce any change
blood pressure of the animals ([10]; kidney study): small drop in blood pressure
resting transmembrane potential (-Em) of liver [11]: tended to increase during the highest infusion rates
liver physiology / tolerability in words [12]: may be safely used in intact animal studies without the co-addition of Ca^2+; also recorded: basic liver physiology is largely unaffected; also recorded: quite non-perturbing to the animal
total dosage needed to produce an equivalent Na^+ shift, burned animals ([13]; burned rats, liver): 0.44 ± 0.04 mmol
total dosage needed to produce an equivalent Na^+ shift, control animals ([13]; control rats, liver): 0.64 ± 0.08 mmol
Na^+ (i) concentration in hepatic cells on infusion ([13]; rat, in vivo): did not alter Na^+ (i) concentration in hepatic cells
^31 P spectra of livers during infusion ([13]; rat, in vivo): did not change appreciably
heart rate throughout the study [14]: 261±19 beats/min
mean arterial blood pressure (MAP) after infusion, burn group [14]: 65±4 mm Hg
mean arterial blood pressure (MAP) after infusion, sham burn group [14]: 78±3 mm Hg
^31 P resonances / phosphate metabolites ([15]; rat liver during infusion): without producing any changes in phosphate metabolite resonances; also recorded: unaffected
intracellular pH ([15]; rat liver, from shift of inorganic phosphate peak): without producing any changes in phosphate metabolite resonances or intracellular pH; also recorded: unaffected
dose at which intra- and extracellular ^23 Na resonances were clearly resolved ([5]; rat liver): 0.55 mmol/kg
intracellular Na^+ peak intensity with further infusion ([5]; rat liver): did not change with further infusion
resolution of intra- and extracellular ^23 Na resonances in words ([5]; rat liver): sharp and well resolved; also recorded: baseline resolved peaks
^23 Na shift and line broadening in words ([5]; rat liver): larger ^23 Na chemical shift per unit concentration
paramagnetic shift of extracellular Na^+ ([5]; rat liver, after 0.65 mmoles kg^-1): approximately 5 ppm
dose required to induce a ^23 Na shift of 5 ppm ([5]; rat liver): 0.65 mmol/kg
peak width at half height, extracellular resonance ([5]; rat liver): 80 Hz
peak width at half height, intracellular resonance ([5]; rat liver): 70 Hz
intracellular Na^+ resonance intensity with further infusion, kidney ([6]; kidney in vivo): does not change with further SR infusion
resolution of Na^+ resonances in kidney in words ([6]; kidney in vivo): well resolved
separation between extra- and intracellular Na^+ resonances ([6]; kidney, about 0.681 mmoles/KgBW): 7-10 ppm
shift of broad shifted resonance ([6]; kidney, about 10 minutes, 0.147 mmoles/KgBW): about 15 ppm
infusion dose at which second resonance became visible as shoulder ([6]; kidney, about 14 minutes): 0.254 mmoles/KgBW
infusion dose at which three resonances became clearly resolved ([6]; kidney, about 17 minutes): 0.334 mmoles/KgBW
shift of third ^23 Na resonance ([6]; kidney, after TmDOTP^5- infusion): about 35 ppm
washout t1/2 [16]: 37 min
arterial pCO2 [17]: 45±2 mm Hg
arterial pH [17]: 7.36±0.02
arterial pO2 [17]: 120±8 mm Hg
developed pressure during infusion [17]: 40±5 mm Hg
free Ca^2+ levels in blood serum [17]: relatively small change
heart rate during infusion [17]: 240±20
hemoglobin [17]: 13 ± 1 g/dL
increase in serum sodium [17]: 10 meq/L
mean arterial pressure (MAP) during infusion [17]: ~70 mm Hg
serum potassium [17]: 3.5±0.2 meq/L
serum sodium after infusion [17]: 158±5 meq/L
